Where a name gives a salt, the structure may show the parent alone. ± gives the standard error.
Assays:
621-103 (TSC2-rescued) = test: relative viability vs DMSO; higher = less cytotoxic; settings: serum: 10% FBS, 72 h
621-102 (TSC2-deficient) = test: as above; settings: serum: 10% FBS, 72 h
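Also: immortalized renal angiomyolipoma cells stably carrying empty vector or TSC2, dosed in 384-well plates in DMEM, viability normalized to vehicle-treated wells within each plate.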

Row | Structure (SMILES) | relative viability (621-103 (TSC2-rescued); 0.0001 µM) | relative viability (621-103 (TSC2-rescued); 0.001 µM) | relative viability (621-103 (TSC2-rescued); 0.01 µM) | relative viability (621-103 (TSC2-rescued); 0.1 µM) | relative viability (621-103 (TSC2-rescued); 1 µM) | relative viability (621-103 (TSC2-rescued); 10 µM) | relative viability (621-102 (TSC2-deficient); 0.0001 µM) | relative viability (621-102 (TSC2-deficient); 0.001 µM) | relative viability (621-102 (TSC2-deficient); 0.01 µM) | relative viability (621-102 (TSC2-deficient); 0.1 µM) | relative viability (621-102 (TSC2-deficient); 1 µM) | relative viability (621-102 (TSC2-deficient); 10 µM)
1 | CO[C@H]1C[C@@H]2CC[C@@H](C)[C@@](O)(O2)C(=O)C(=O)N2CCCC[C@H]2C(=O)O[C@H]([C@H](C)C[C@@H]2CC[C@@H](OCCO)[C@H](OC)C2)CC(=O)[C@H](C)/C=C(\C)[C@@H](O)[C@@H](OC)C(=O)[C@H](C)C[C@H](C)/C=C/C=C/C=C/1C [Everolimus (RAD001)] | 71.1 ± 3.2% | 69.7 ± 1.3% | 68.2 ± 1.6% | 71.6 ± 2% | 75.3 ± 2.6% | 67.6 ± 0.97% | 46.7 ± 2.2% | 56.4 ± 1.5% | 49.8 ± 4.2% | 52.7 ± 3.3% | 54.2 ± 3% | 50.3 ± 3.7%
2 | O=S(=O)(c1cccc2cnccc12)N1CCCNCC1 [Fasudil HCl] | 102 ± 2.1% | 98.11 ± 0.26% | 99.94 ± 0.62% | 97.3 ± 1.3% | 97.052 ± 0.09% | 101.9 ± 0.26% | 95.7 ± 1.9% | 111.14 ± 0.069% | 100 ± 7.1% | 107.7 ± 0.97% | 110 ± 3.2% | 83.5 ± 3.1%
3 | Cc1nc(-c2ccc(OCC(C)C)c(C#N)c2)sc1C(=O)O [Febuxostat] | 104 ± 2.5% | 100.5 ± 0.98% | 101 ± 2.4% | 102 ± 4% | 98.3 ± 0.27% | 101.3 ± 0.28% | 104 ± 2.3% | 104 ± 2.4% | 102.5 ± 0.48% | 105 ± 5.9% | 100.8 ± 0.75% | 99.9 ± 2.2%
4 | CCOC(=O)C1=C(C)NC(C)=C(C(=O)OC)C1c1cccc(Cl)c1Cl (stereo unspecified) [Felodipine] | 104.4 ± 0.74% | 100.1 ± 0.68% | 104 ± 3.1% | 98.2 ± 1.4% | 100 ± 1.6% | 106 ± 2.3% | 103 ± 2.2% | 97.3 ± 5.4% | 101 ± 4.7% | 103 ± 1.5% | 106 ± 1.6% | 117 ± 4.6%
5 | COC(=O)Nc1nc2cc(Sc3ccccc3)ccc2[nH]1 [Fenbendazole (Panacur)] | 108 ± 3.3% | 102 ± 3.8% | 110.5 ± 0.51% | 102 ± 2.8% | 44.28 ± 0.059% | 40.924 ± 0.025% | 114 ± 2% | 109.5 ± 0.17% | 98.4 ± 4.1% | 91.8 ± 1.4% | 38.2 ± 1.4% | 39.5 ± 0.88%
6 | CC(C)C(=O)Oc1ccc(CO)cc1[C@H](CCN(C(C)C)C(C)C)c1ccccc1 [Fesoterodine fumarate (Toviaz)] | 104 ± 1.1% | 105 ± 3% | 106 ± 2.1% | 107 ± 5.6% | 101.2 ± 0.67% | 95.413 ± 0.0029% | 97.3 ± 5.3% | 100.52 ± 0.035% | 102 ± 1.2% | 109 ± 3.6% | 93.13 ± 0.096% | 94.5 ± 1.9%
7 | CC(C)(C)NC(=O)[C@H]1CC[C@H]2[C@@H]3CC[C@H]4NC(=O)C=C[C@]4(C)[C@H]3CC[C@]12C [Finasteride] | 102.7 ± 0.88% | 101 ± 1.6% | 102.1 ± 0.43% | 101.2 ± 0.15% | 101.2 ± 0.59% | 99.6 ± 0.87% | 112 ± 1.9% | 114 ± 4% | 106 ± 2% | 99.13 ± 0.73% | 92.7 ± 2% | 92.5 ± 2.9%
8 | CN1CC[C@H](c2c(O)cc(O)c3c(=O)cc(-c4ccccc4Cl)oc23)[C@H](O)C1 [Flavopiridol (Alvocidib)] | 103 ± 4.3% | 100.4 ± 0.89% | 102.2 ± 0.86% | 55.26 ± 0.43% | 17.8 ± 0.22% | 21.81 ± 0.19% | 104 ± 1.3% | 104.1 ± 0.59% | 95.5 ± 5% | 45.4 ± 1.9% | 11.3 ± 0.76% | 11.7 ± 0.13%
9 | CN1CC[C@H](c2c(O)cc(O)c3c(=O)cc(-c4ccccc4Cl)oc23)[C@H](O)C1 [Flavopiridol HCl] | 91.4 ± 6.3% | 88 ± 1.4% | 90.7 ± 3.4% | 55.2 ± 0.46% | 13 ± 0.61% | 11 ± 0.25% | 103 ± 1.6% | 98.59 ± 0.27% | 93.1 ± 5.7% | 49.2 ± 0.89% | 10.5 ± 0.34% | 10.1 ± 1.1%
10 | CN1CCN(c2c(F)cc3c(=O)c(C(=O)O)cn(CCF)c3c2F)CC1 [Fleroxacin (Quinodis)] | 96.7 ± 2.6% | 92.52 ± 0.83% | 92.3 ± 1.4% | 98.4 ± 1.5% | 105 ± 5% | 109 ± 1.7% | 104 ± 1.2% | 111 ± 3.5% | 102 ± 2.7% | 91.53 ± 0.47% | 90.9 ± 1.1% | 91.6 ± 4.7%
11 | Nc1nc(=O)[nH]cc1F [Flucytosine (Ancobon)] | 105.5 ± 0.24% | 101 ± 3.4% | 104.5 ± 0.84% | 106 ± 1.2% | 103 ± 1.4% | 98.9 ± 4.4% | 92.9 ± 2.9% | 99.4 ± 1.2% | 103.85 ± 0.042% | 102.2 ± 0.19% | 98.4 ± 4.1% | 92.5 ± 3.2%
12 | Nc1nc(F)nc2c1ncn2[C@@H]1O[C@H](CO)[C@@H](O)[C@@H]1O [Fludarabine (Fludara)] | 108 ± 4.5% | 92.6 ± 8.1% | 102 ± 1.6% | 102.9 ± 1% | 102.8 ± 0.34% | 86.6 ± 8% | 101 ± 3.9% | 92 ± 1.4% | 106 ± 1.3% | 100.6 ± 0.41% | 94.7 ± 5.7% | 86.22 ± 0.37%
13 | Nc1nc(F)nc2c1ncn2[C@@H]1O[C@H](COP(=O)(O)O)[C@@H](O)[C@@H]1O [Fludarabine Phosphate] | 104 ± 2.1% | 104 ± 2.7% | 103.3 ± 0.34% | 102.6 ± 0.82% | 100 ± 1.7% | 89.1 ± 6.1% | 98.1 ± 1.6% | 105 ± 1.1% | 101.7 ± 0.47% | 106 ± 1.9% | 96.4 ± 7.2% | 94 ± 1.7%
14 | CNCCC(Oc1ccc(C(F)(F)F)cc1)c1ccccc1 (stereo unspecified) [Fluoxetine HCl] | 100 ± 4.3% | 109 ± 2% | 106 ± 1.8% | 99.6 ± 1.9% | 104 ± 1.3% | 70.9 ± 2% | 101.3 ± 0.38% | 100 ± 1.8% | 109 ± 2.5% | 107 ± 2.1% | 99.3 ± 1.1% | 86.9 ± 2.2%
15 | CC(C)n1c(/C=C/C(O)CC(O)CC(=O)O)c(-c2ccc(F)cc2)c2ccccc21 (stereo unspecified) [Fluvastatin Sodium] | 102 ± 2.2% | 95.8 ± 2.6% | 99.5 ± 4.6% | 100 ± 2.1% | 71.8 ± 4.7% | 32.19 ± 0.096% | 102 ± 1.5% | 106 ± 3.3% | 105 ± 1.1% | 101 ± 3.1% | 100 ± 2.8% | 73.38 ± 0.72%
16 | C[C@]12CCC(=O)C(O)=C1CC[C@@H]1[C@@H]2CC[C@]2(C)C(=O)CC[C@@H]12 [Formestane] | 105 ± 4% | 102.8 ± 0.63% | 105.2 ± 0.81% | 102 ± 1.2% | 101 ± 3.9% | 102.4 ± 0.89% | 105 ± 1.1% | 113 ± 3.5% | 120 ± 4.2% | 94.73 ± 0.3% | 98.9 ± 1.5% | 109 ± 0.99%
17 | C[C@]12CC[C@@H]3c4ccc(O)cc4C[C@@H](CCCCCCCCC[S+]([O-])CCCC(F)(F)C(F)(F)F)[C@H]3[C@@H]1CC[C@@H]2O (stereo partly specified) [Fulvestrant] | 104 ± 1.3% | 101.5 ± 0.32% | 100 ± 1.9% | 102.2 ± 0.13% | 103 ± 1.7% | 104 ± 1.2% | 119.5 ± 0.33% | 117.7 ± 1% | 115 ± 2.2% | 114.7 ± 0.26% | 120 ± 3.1% | 113 ± 3.3%
18 | CS(=O)(=O)c1ccc(C(=O)Nc2ccc(Cl)c(-c3ccccn3)c2)c(Cl)c1 [GDC-0449 (Vismodegib)] | 100.4 ± 1% | 100 ± 1.6% | 103 ± 1.6% | 102.1 ± 0.15% | 103.2 ± 0.18% | 102 ± 0.43% | 103 ± 2.5% | 111.7 ± 0.39% | 111.9 ± 0.39% | 111 ± 2.7% | 116.2 ± 0.59% | 104 ± 1.8%

Reference: the supplement of paper PMC8960247
